From patent US20090305960A1, “Melanocortin Receptor-Specific Peptides for Treatment of Obesity / 669” (Palatin Technologies, Inc, priority 2008, published 2009)
Where a SMILES comes first, the peptide text is derived from it. Bridges are numbered along the chain shown (N, C = ends). [ ]: non-standard residue; d: D form. The star is where a group is joined. Orn = NCCC[C@H](N)C(=O)O; Bn = c1ccc(C*)cc1

Columns and labels:
[1] = Food intake and body weight change in rats; type: in vivo, rat; settings: for decrease in food consumption compared to control: rats
Experimental: Change in food intake and body weight was evaluated for selected peptides administered by intravenous (IV) or subcutaneous injection routes. Male Sprague-Dawley rats were obtained from Hilltop Lab Animals, Inc. (Scottsdale, Pa.) or other vendors. Animals were individually housed in conventional polystyrene hanging cages and maintained on a controlled 12 hour on/off light cycle. Water and pelleted food was provided ad libitum. The rats were dosed IV with vehicle or selected peptides (0.3 to 1.0 mg/kg), or dosed subcutaneously with vehicle or selected peptides (doses up to 30 mg/kg). The changes in body weight and food intake for the 24 hour period after dosing was determined. The changes in body weight and food intake for the 48 hour and 72 hour periods after dosing can also be measured to determine reversal of changes in body weight and food intake effects back to baseline levels.

hMC4-R = molecular target: T1, hMC4-R (Homo sapiens, UniProt P32245); assay: Competitive binding assay using Eu-NDP-α-MSH, MC4-R
T1 construct: expressed in transfected cells; host or cells: HEK-293 (membrane homogenates)
Experimental: Competitive inhibition binding assays were performed using membrane homogenates prepared from HEK-293 cells that express recombinant hMC1-R, hMC3-R, hMC4-R, or hMC5-R. In the examples that follow, all MC1-R, MC3-R, MC4-R and MC5-R values are for human recombinant receptors. Assays were performed in 96 well GF/B Millipore multiscreen filtration plates (MAFB NOB10) pre-coated with 0.5% bovine serum albumin (Fraction V). Membrane homogenates were incubated with 0.1 nM [1^125]-NDP-α-MSH (Perkin Elmer) and increasing concentrations of test peptides of the present invention in buffer containing 25 mM HEPES buffer (pH 7.5) with 100 mM NaCl, 2 mM CaCl2, 2 mM MgCl2, 0.3 mM 1,10-phenanthroline, and 0.1% bovine serum albumin. After incubation for 90 minutes at 37° C., the assay mixture was filtered and the membranes washed with 1 mL of cold 1×PBS wash buffer per well. 35 μL of scintillation cocktail was added to each well and the plates counted on a Microbeta counter for 1 minute per well. Non-specific binding was measured by inhibition of binding of [I^125]-NDP-α-MSH in the presence of 1 μM NDP-α-MSH. Maximal specific binding (100%) was defined as the difference in radioactivity (cpm) bound to cell membranes in the absence and presence of 1 μM NDP-α-MSH. Radioactivity (cpm) obtained in the presence of test compounds was normalized with respect to 100% specific binding to determine the percent inhibition of [I^125]-NDP-α-MSH binding. Each assay was conducted in duplicate and actual mean values are described, with results less than 0% reported as 0%. Ki values for test peptides of the present invention were determined using Graph-Pad Prism® curve-fitting software.
(§1) Alternatively, a competitive inhibition binding assay was performed employing Eu-NDP-α-MSH (PerkinElmer Life Sciences catalog No. AD0225) with determination by time-resolved fluorometry (TRF) of the lanthanide chelate. In comparison studies with [I^125]-NDP-α-MSH, the same values, within experimental error ranges, were obtained for percent inhibition and Ki. Typically competition experiments to determine Ki values were conducted by incubating membrane homogenates prepared from HEK-293 cells that express recombinant hMC4-R with 9 different concentrations of test compounds of interest and 1 nM of Eu-NDP-α-MSH in a solution containing 25 mM HEPES buffer with 100 mM NaCl, 2 mM CaCl2, 2 mM MgCl2, 0.1% BSA, and 0.3 mM 1,10-phenanthroline. After incubation for 90 minutes at 37° C., the reaction was stopped by filtration over AcroWell 96-well filter plates (Pall Life Sciences). The filter plates were washed 4 times with 200 μL of ice-cold phosphate-buffered saline. DELFIA Enhancement solution (PerkinElmer Life Sciences) was added to each well. The plates were incubated on a shaker for 15 minutes and read at 340 nm excitation and 615 nm emission wavelengths. Each assay was conducted in duplicate and mean values were utilized. Ki values were determined by curve-fitting with Graph-Pad Prism® software using a one-site fixed-slope competition binding model.

[2] = Induction of penile erection in male rats; type: in vivo, rat; settings: IV
Experimental: The ability of peptides of the present invention to induce penile erection (PE) in male rats were evaluated with selected peptides. Male Sprague-Dawley rats weighing 250-300 g were kept on a 12 hour on/off light cycle with food and water ad libitum. All behavioral studies were performed between 9 a.m. and 4 p.m. Groups of 6-8 rats were administered peptides at a variety of doses via an IV route. Immediately after treatment, rats were placed into individual polystyrene cages (27 cm long, 16 cm wide, and 25 cm high) for behavioral observation, typically by remote video monitoring. Rats are observed for one hour, and the number of yawns, grooming bouts and PEs are recorded in 10-minute bins.

hMC1-R = molecular target: T2, hMC1-R (Homo sapiens, UniProt Q01726); assay: Competitive binding assay, MC1-R; settings: competitive studies using Eu-NDP-α-MSH / NDP-α-MSH
T2 construct: expressed in transfected cells; host or cells: HEK-293 (membrane homogenates)
Experimental: Competitive inhibition binding assays were performed using membrane homogenates prepared from HEK-293 cells that express recombinant hMC1-R, hMC3-R, hMC4-R, or hMC5-R. In the examples that follow, all MC1-R, MC3-R, MC4-R and MC5-R values are for human recombinant receptors. Assays were performed in 96 well GF/B Millipore multiscreen filtration plates (MAFB NOB10) pre-coated with 0.5% bovine serum albumin (Fraction V). […] 35 μL of scintillation cocktail was added to each well and the plates counted on a Microbeta counter for 1 minute per well. […] Maximal specific binding (100%) was defined as the difference in radioactivity (cpm) bound to cell membranes in the absence and presence of 1 μM NDP-α-MSH. […] Ki values for test peptides of the present invention were determined using Graph-Pad Prism® curve-fitting software.
Alternatively, a competitive inhibition binding assay was performed employing Eu-NDP-α-MSH (PerkinElmer Life Sciences catalog No. AD0225) with determination by time-resolved fluorometry (TRF) of the lanthanide chelate. […] The plates were incubated on a shaker for 15 minutes and read at 340 nm excitation and 615 nm emission wavelengths. […] Ki values were determined by curve-fitting with Graph-Pad Prism® software using a one-site fixed-slope competition binding model.

[3] = molecular target: T3, human melanocortin-4 receptor (recombinant hMC4-R) (human, UniProt P32245 1-332); assay: competitive binding vs Eu-NDP-α-MSH, TRF, hMC4-R HEK-293 membranes
T3 construct: whole, on cells; the cAMP assay used whole cells; also called MC4 receptor
Experimental: as §1, with “[I¹²⁵]-NDP-α-MSH,” for “[I^125]-NDP-α-MSH,”, “Typically competition experiments to determine Ki values were conducted by incubating membrane homogenates prepared from HEK-293 cells that express recombinant hMC4-R with 9 different concentrations of test compounds of interest and 1 nM of Eu-NDP-α-MSH in a solution containing 25 mM HEPES buffer with 100 mM NaCl, 2 mM CaCl2, 2 mM MgCl2, 0.1% BSA, and 0.3 mM 1,10-phenanthroline.” left out
Peptides of the following structures were synthesized by the general methods described above, and except where indicated MC4-R Ki values for each peptide were determined in competitive binding assays using Eu-NDP-α-MSH as described in 7.2 above.

[4] = rat feeding studies, overall finding in words

T1 sequence (P32245 whole entry): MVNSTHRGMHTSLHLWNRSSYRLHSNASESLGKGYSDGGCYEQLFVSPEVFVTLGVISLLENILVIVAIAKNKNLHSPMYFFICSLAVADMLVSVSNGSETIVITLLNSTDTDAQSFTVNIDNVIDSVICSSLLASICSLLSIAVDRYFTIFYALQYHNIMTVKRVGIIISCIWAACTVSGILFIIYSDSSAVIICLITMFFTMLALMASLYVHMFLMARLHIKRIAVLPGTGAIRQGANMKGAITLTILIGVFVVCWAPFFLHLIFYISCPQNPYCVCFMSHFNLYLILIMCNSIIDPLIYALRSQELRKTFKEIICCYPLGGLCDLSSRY
T2 sequence (Q01726 whole entry): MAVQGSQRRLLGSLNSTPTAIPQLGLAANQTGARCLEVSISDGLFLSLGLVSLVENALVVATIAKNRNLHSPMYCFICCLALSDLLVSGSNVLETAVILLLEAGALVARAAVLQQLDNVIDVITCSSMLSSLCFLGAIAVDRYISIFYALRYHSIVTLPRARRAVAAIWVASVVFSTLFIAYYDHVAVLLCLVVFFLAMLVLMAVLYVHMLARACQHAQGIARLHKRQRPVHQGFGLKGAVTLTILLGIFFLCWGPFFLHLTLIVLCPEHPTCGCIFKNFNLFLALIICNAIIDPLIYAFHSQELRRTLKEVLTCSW
T3 sequence (P32245 whole entry): as the sequence (P32245 whole entry) above

Molecule | food intake [1, 4] | rate of change in body weight [1, 4] | decrease in food consumption compared to control ([1]; 0.3 mg/kg, 0-2 hour period) | decrease in food consumption compared to control ([1]; 0.3 mg/kg, 0-4 hour period) | decrease in food consumption compared to control ([1]; 0.3 mg/kg, 0-20 hour period) | decrease in food consumption compared to control ([1]; 1 mg/kg, 0-4 hour period) | decrease in food consumption compared to control ([1]; 1 mg/kg, 0-20 hour period) | decrease in food consumption compared to control ([1]; 1 mg/kg, 4-20 hour period) | Ki (hMC4-R; competitive studies using Eu-NDP-α-MSH / NDP-α-MSH, average of several studies, read-out: Ki value at MC4-R) [nM] | selectivity for MC4-R (binding against MC1-R, MC3-R and MC4-R) (hMC4-R; in words) | average spontaneous erections per rat in one hour ([2]; 1 mg/kg) | increase in observed spontaneous erections ([2]; in words) | Ki (hMC1-R) [nM] | Ki [3] [nM]
CC(=O)N[C@@H](CCCNC(=N)N)C(=O)N[C@H]1CCCNC(=O)CC[C@@H](C(=O)O)NC(=O)[C@H](Cc2c[nH]c3ccccc23)NC(=O)[C@H](CCCNC(=N)N)NC(=O)[C@@H](Cc2ccccc2)NC(=O)[C@H](COCc2ccccc2)NC1=O [Compound 7, Ac-Arg-cyclo(Orn-Ser(Bzl)-D-Phe-Arg-Trp-Glu)-OH] (Ac-R[Orn]S(Bn)[dF]RWE-OH; lactam 2-7) | reduce food intake | decrease the rate of change in body weight | statistically significant | statistically significant | statistically significant | statistically significant | statistically significant | statistically significant | 9 | highly selective for MC4-R | 1.429±0.69 spontaneous erections per rat in one hour | not found to result in a statistically significant increase | 2040 | 
RDPXRWK (not fully specified; N-terminal acetyl (Ac); D-Phe at position 4; side-chain lactam cyclo(Asp2-Lys7); C-terminal -OH; position 6 printed 'trp' in the table and in claim 5 but 'Trp' in the 2nd table, Synthetic cyclic heptapeptide; also called Compound 8; No. 8) [Ac-Arg-cyclo(Asp-Pro-D-Phe-Arg-trp-Lys)-OH] |  |  |  |  |  |  |  |  |  |  |  |  |  | 116
